Measured values published in patent US20030109462A1, “Novel naringenin derivatives and use thereof” (Japan Science and Technology Corporation, priority 2001, published 2003).
“Also recorded” adds a separate entry of the source.

Experiments:
[1] = test system: cowpea weevil (C. maculatus); test: Insecticidal test on artificial beans, cowpea weevil; type: in vivo, Callosobruchus maculatus; conditions: cowpea weevils
Experimental: (§1) These two species of bean weevils were cultured in the same way. In a 9 cm Petri dish containing 300 mungbean seeds, was placed ten adults of bean weevil and egg production was induced. After egg production, the adults were removed and cultured in a thermostatically controlled incubator at 60% humidity and 30° C. After 25 to 30 days from the egg production, the adults emerged. The emerged adults were used in the test for insecticidal activity.
To 1 g of the cotyledon powder of mungbean was added a small quantity of water to make bean-like solid material (about 0.25 g), which was freeze-dried. This material was called artificial bean (mungbean 100%) and used in the test. […]
One artificial seed each of artificial beans in this test was placed in a 9 cm Petri dish, on which the adults of azuki bean weevils or cowpea weevils shortly after the emergence were put and induced to lay eggs. […] The number of eggs laid on the artificial beans was recorded, and the number of the adults that emerged from the artificial beans was continuously recorded for up to 50 days after the egg production to calculate the rate of emergence. The artificial beans on which no emergence was recorded by the 50th day after eggs were laid were split with a pair of forceps and checked as to whether there was any larvae in the artificial seed. […]

[2] = test system: two species of bean weevils: azuki bean weevil (Callosobruchus chinensis) and cowpea weevil (C. maculatus); test: Insecticidal test on artificial beans, one result stated for both bean weevil species; type: in vivo
Experimental: Two species of bean weevils, i.e., azuki bean weevil (Callosobruchus chinensis) and cowpea weevil (C. maculatus) were employed. Cowpea weevil was obtained from Kasetsart University, Thailand, under an import license from the Plant Quarantine Office of Japan and subcultured.
as §1
(§2) To 1 g of the cotyledon powder of mungbean was added a small quantity of water to make bean-like solid material (about 0.25 g), which was freeze-dried. This material was called artificial bean (mungbean 100%) and used in the test.
(§3) The artificial beans (mungbean 100%) were placed in a 9 cm Petri dish, on which was then put the adults shortly after their emergence and eggs were laid on the artificial seeds. The culture environment was fixed at a temperature of 30° C. and a humidity of 60%. After a lapse of 25 to 30 days from the egg production, the adults normally emerged from the artificial beans (mungbean 100%). Thus, it became clear that the bean weevils can utilize the artificial beans for their egg production and emergence, and it was confirmed that the artificial beans are useful in a test of insecticidal activity for bean weevils.
(§4) One artificial seed each of artificial beans in this test was placed in a 9 cm Petri dish, on which the adults of azuki bean weevils or cowpea weevils shortly after the emergence were put and induced to lay eggs. After egg production, the adults were cultured in an incubator fixed at 30° C. and 60% humidity. The number of eggs laid on the artificial beans was recorded, and the number of the adults that emerged from the artificial beans was continuously recorded for up to 50 days after the egg production to calculate the rate of emergence. The artificial beans on which no emergence was recorded by the 50th day after eggs were laid were split with a pair of forceps and checked as to whether there was any larvae in the artificial seed. This experiment, the insecticidal test on the artificial beans, was repeated 4 times.
(§5) The value represented by the weight (g) of the artificial beans which can be prepared from the total weight of rice bean seed powder according to the minimum lethal concentration was regarded as the total activity of the rice bean seed powder. (The value derived by dividing the total weight of rice bean seed powder by the minimum lethal concentration)
(§6) Moreover, the total activity for 1 g of the rice bean seed powder was calculated as specific activity (units/g).
(§7) Insecticidal activity was observed by calculating total activity and specific activity under the same conditions and following the same procedure as in Experiment 1, except that the extract obtained in each step of purification was used in place of the seed powder of rice bean.

[3] = test system: larva of giant tobacco budworm (Heliothis obsoleta Fabricius); conditions: cited from earlier work
[4] = test system: azuki bean weevil (Callosobruchus chinensis); test: Insecticidal test on artificial beans, azuki bean weevil; type: in vivo
Experimental: as §1, §2, §3, §4, §5, §6, §7

[5] = Table 2, purification without silica gel, two species of bean weevils
[6] = Table 1, steps from silica gel chromatography on, activity to azuki bean weevils

Row | SMILES | insecticidal activity (in words) [1] | Specific activity [2, 5] [units/g] | Total activity [2, 5] [units] | rate of emergence ([2]; artificial beans containing 0.05%, 0.1%, or 0.2% of the 5th peak, both species) | rate of emergence ([2]; artificial beans containing 0.1% of the 5th peak, two species) [%] | rate of emergence ([2]; artificial beans containing 0.2% of the 5th peak, two species) [%] | insecticidal activity (in words) ([2]; azuki bean weevils and cowpea weevils) | minimum lethal concentration ([2]; concentration in artificial beans required for emergence rate 0%, both weevil species) [%] | insecticidal effect (in words) [3] | Specific activity [4, 6] [units/g] | Total activity [4, 6] [units] | rate of emergence ([4]; artificial beans containing 0.05%, 0.1%, or 0.2% of the 7th peak, azuki bean weevils) | rate of emergence ([4]; artificial beans containing 0.1% of the 7th peak) [%] | rate of emergence ([4]; artificial beans containing 0.2% of the 7th peak) [%] | insecticidal activity (in words) ([4]; azuki bean weevils) | minimum lethal concentration ([4]; concentration in artificial beans required for emergence rate 0%, azuki bean weevils) [%]
1 | O=C1C[C@H](c2ccc(O)cc2)Oc2cc(O)c([C@@H]3O[C@H](CO)[C@@H](O)[C@H](O)[C@H]3O)c(O)c21 [6-C-β-D-glucosyl-(R)-naringenin] | insecticidally active | 1000.0 | 8.0 | low | 0 | 0 | insecticidal substance active to azuki bean weevils and cowpea weevils | 0.1 | – | – | – | – | – | – | – | –
2 | O=c1cc(-c2ccc(O)c(O)c2)oc2cc(O)c([C@@H]3O[C@H](CO)[C@@H](O)[C@H](O)[C@H]3O)c(O)c12 [6-C-β-D-glucosyl-luteolin] | – | – | – | – | – | – | – | – | insecticidal effect | – | – | – | – | – | – | –
3 | O=C1C[C@H](c2ccc(O)cc2)Oc2c1c(O)cc(O)c2[C@@H]1O[C@H](CO)[C@@H](O)[C@H](O)[C@H]1O [8-C-β-D-glucosyl-(R)-naringenin] | only to azuki bean weevils | – | – | – | – | – | – | – | – | 1000.0 | 2.0 | low | 0 | 0 | insecticidal substance active to azuki bean weevils; also recorded: shows insecticidal activity | 0.1
